Key:
[1] = test system: cellulase (produced by Sigma); experiment: Enzymatic hydrolysis of microcrystalline cellulose with cellulase in the presence of the onium salt; type: biochemical; details: 1.00 g microcrystalline cellulose in 5.00 g onium salt; 95.0 g water, 10 μL cellulase, 4 days; calculated from cellulose residue
Experimental: 5.00 g of 1,3-bis(3-methoxypropyl)imidazolium acetate was placed in a flask and maintained at 50° C. 1.00 g of microcrystalline cellulose (Avicel (registered trademark) PH-101) was added at 50° C., and the resulting mixture was stirred until visual observation confirmed that microcrystalline cellulose had been completely dissolved. 95.0 g of ultrapure water and 10 μL of cellulase (produced by Sigma) were added, and the resulting mixture was stirred for 4 days. The remaining cellulose residue was recovered by filtration, and the glucose conversion rate was calculated.
The same procedure as in Example 1 was repeated except that 1-ethyl-3-methylimidazolium acetate was used in place of the 1,3-bis(3-methoxypropyl)imidazolium acetate used in Example 1.

[2] = test system: dry yeast; experiment: Fermentation of glucose with dry yeast to ethanol in the presence of the onium salt; type: cell-based; details: 0.20 g onium salt, 0.5 g glucose, 9.6 g water, 0.05 g dry yeast, stand overnight; ethanol quantified by GC
Experimental: (§1) 0.20 g of 1,3-bis(3-methoxypropyl)imidazolium acetate, 0.5 g of glucose (β-D-glucose (including α-D-glucose), produced by Tokyo Chemical Industry Co., Ltd.), and 9.6 g of ultrapure water were placed in a sample tube. The resulting mixture was stirred until the glucose was completely dissolved. After the glucose had been completely dissolved, 0.05 g of dry yeast was added and the resulting mixture was allowed to stand overnight. After filtering off the insoluble matter, the amount of ethanol produced was quantified by GC (gas chromatography) to calculate the ethanol yield.
as §1, with “1,3-bis(methoxyethoxypropyl)imidazolium acetate ([(MeOEtOPr)2Im][AcO]),” for “1,3-bis(3-methoxypropyl)imidazolium acetate,”, “added. The” for “added and the”
as §1, with “1,3-bis(ethoxypropyl)imidazolium acetate ([(EtOPr)2Im][AcO]),” for “1,3-bis(3-methoxypropyl)imidazolium acetate,”
The same procedure as in Example 2 was repeated except that 1-ethyl-3-methylimidazolium acetate was used in place of the 1,3-bis(3-methoxypropyl)imidazolium acetate used in Example 2.

[3] = test system: yeast (Saccharomyces cerevisiae); experiment: Antibacterial test (minimum inhibitory concentration, MIC value) against yeast; type: cell-based; details: lower MIC = greater inhibition
Experimental: An antibacterial test (measurement of minimum inhibitory concentration (MIC value)) of 1,3-bis(3-methoxypropyl)imidazolium acetate and 1-ethyl-3-methylimidazolium acetate against yeast (Saccharomyces cerevisiae) was carried out. A lower MIC value indicates a greater degree of inhibition of enzymatic and/or microbial activity.

[4] = test system: cellulase (produced by Sigma) and dry yeast; experiment: Cellulose dissolution, cellulase hydrolysis and dry yeast fermentation to ethanol in one pot in the presence of the onium salt; type: cell-based; details: 2.00 g onium salt, 0.50 g microcrystalline cellulose, 80° C. 3 h; 38.0 g water, 20 μL cellulase, 50° C. 10 h; 0.50 g dry yeast, 30° C. 7 h; GC
Experimental: 2.00 g of 1,3-bis(3-methoxypropyl)imidazolium acetate was placed in a sample tube, and 0.50 g of microcrystalline cellulose (Avicel (registered trademark) PH-101) was added. The resulting mixture was heated and stirred at 80° C. for 3 hours. After confirming by visual observation that the microcrystalline cellulose had been […], 38.0 g of ultrapure water and 20 μL of cellulase (produced by Sigma) were added. The resulting mixture was stirred at 50° C. for 10 hours. 0.50 g of dry yeast was then added and the resulting mixture was gently stirred at 30° C. After 7 hours, the insoluble matter was filtered off, and the amount of ethanol produced was quantified by GC (gas chromatography) to calculate the ethanol yield.
The same procedure as in Example 5 was repeated, except that 1-ethyl-3-methylimidazolium acetate was used in place of the 1,3-bis(3-methoxypropyl)imidazolium acetate used in Example 5.
The same procedure as in Example 5 was repeated, except that the 1,3-bis(3-methoxypropyl)imidazolium acetate used in Example 5 was not added and 2.00 g of ultrapure water was used in place of 2.00 g of 1,3-bis(3-methoxypropyl)imidazolium acetate.

| SMILES | Glucose conversion rate [1] | Ethanol yield [2] | MIC value [3] | Ethanol yield [4] |
| --- | --- | --- | --- | --- |
| CC(=O)[O-].CCn1cc[n+](C)c1 [1-Ethyl-3-methylimidazolium acetate, 1-ethyl-3-methylimidazolium acetate, reference compound] | 8% | 14.2% | 0.5% | 16.0 |
| CC(=O)[O-].CCOCCCn1cc[n+](CCCOCC)c1 [[EtOPr]2Im] [AcO], 1,3-bis(ethoxypropyl)imidazolium acetate] |  | 46.38% |  |  |
| CC(=O)[O-].COCCOCCCn1cc[n+](CCCOCCOC)c1 [[MeOEtOPr]2Im] [AcO], 1,3-bis(methoxyethoxypropyl)imidazolium acetate] |  | 53.77% |  |  |
| CC(=O)[O-].COCCCn1cc[n+](CCCOC)c1 [[MeOPr]2Im] [AcO], 1,3-bis(3-methoxypropyl)imidazolium acetate] | 73% | 66.64% | 5% | 51.5 |

Reference: patent US20250034600A1, “ONIUM SALT COMPOSITIONS, METHODS FOR PRODUCING CELLULOSE HYDROLYSATES, ALCOHOLS AND/OR ORGANIC ACIDS IN THE PRESENCE OF ONIUM SALT COMPOSITIONS” (KOEI CHEMICAL COMPANY, LIMITED, priority 2023, published 2025)
